Results taken from US20080070954A1, “Acylurea Connected And Sulfonylurea Connected Hydroxamates” (S*BIO PTE LTD., priority 2003, published 2008).

Assays:
[1] = biological target: T1, HDAC1 enzyme (recombinant GST-HDAC1) (Homo sapiens, UniProt Q13547); assay: In vitro HDAC assay for determination of IC50 values (BIOMOL fluorescent-based), HDAC1; assay type: biochemical; conditions: 600 nM HDAC1 enzyme, 500 μM Flur de lys generic substrate, 2 h room temperature
T1 construct: Amplification of human HDAC1 and HDAC8 coding region from this cDNA library; made in house; host or cells: SF9 insect cells (baculovirus, pDEST20 vector)
T1 sequence (Q13547 whole entry): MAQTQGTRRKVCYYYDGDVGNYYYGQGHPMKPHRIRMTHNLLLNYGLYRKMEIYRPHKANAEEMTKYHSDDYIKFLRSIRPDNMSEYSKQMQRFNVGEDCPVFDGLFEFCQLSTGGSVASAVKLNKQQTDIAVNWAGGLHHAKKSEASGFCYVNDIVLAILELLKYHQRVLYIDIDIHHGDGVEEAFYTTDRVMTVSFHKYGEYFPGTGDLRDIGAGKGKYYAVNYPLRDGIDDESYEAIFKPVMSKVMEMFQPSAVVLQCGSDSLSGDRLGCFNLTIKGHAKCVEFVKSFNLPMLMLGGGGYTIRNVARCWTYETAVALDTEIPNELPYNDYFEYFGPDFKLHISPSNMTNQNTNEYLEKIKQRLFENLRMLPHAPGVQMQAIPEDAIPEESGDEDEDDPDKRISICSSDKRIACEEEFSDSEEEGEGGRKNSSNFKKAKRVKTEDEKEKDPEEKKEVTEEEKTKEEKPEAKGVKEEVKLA
Description: (§1) Human cDNA library was prepared using cultured SW620 cells. Amplification of human HDAC1 and HDAC8 coding region from this cDNA library was cloned separately into the baculovirus expression pDEST20 vector and pFASTBAC vector respectively (GATEWAY Cloning Technology, Invitrogen Pte Ltd). The pDEST20-HDAC1 and pFASTBAC-HTGST-HDAC8 constructs were confirmed by DNA sequencing. Recombinant baculovirus was prepared using the Bac-To-Bac method following the manufacturer's instruction (Invitrogen Pte Ltd). Baculovirus titer was determined by plaque assay to be about 10^8 PFU/ml.
(§2) Expression of GST-HDAC1 or HTGST-HDAC8 was done by infecting SF9 cells (Invitrogen Pte Ltd) with pDEST20-HDAC1 or pFASTBAC-GST-HDAC8 baculovirus at MOI=1 for 48 h. Soluble cell lysate was incubated with pre-equilibrated Glutathione Sepharose 4B beads (Amersham) at 4° C. for 2 h. The beads were washed with PBS buffer for 3 times. The GST-HDAC1 protein or GST-HDAC8 protein was eluted by elution buffer containing 50 mM Tris, pH8.0, 150 mM NaCl, 1% Triton X-100 and 10 mM or 20 mM reduced Glutathione. The purified GST-HDAC1 protein or purified GST-HDAC8 protein was dialyzed with HDAC storage buffer containing 10 mM Tris, pH7.5, 100 mM NaCl and 3 mM MgCl2. 20% Glycerol was added to purified GST-HDAC1 protein or purified GST-HDAC8 before storage at −80° C.
The assay has been carried out in 96 well format and the BIOMOL fluorescent-based HDAC activity assay has been applied. The reaction composed of assay buffer, containing 25 mM Tris pH 7.5, 137 mM NaCl, 2.7 mM KCl, 1 mM MgCl2, 1 mg/ml BSA, tested compounds, 500 nM HDAC8 enzyme or 600 nM HDAC1 enzyme, 200 μM Flur de lys p53 peptide substrate for HDAC8 enzyme or 500 μM Flur de lys generic substrate for HDAC1 enzyme and subsequently was incubated at room temperature for 2 h. Flur de lys Developer was added and the reaction was incubated for 10 min. Briefly, deacetylation of the substrate sensitizes it to the developer, which then generates a fluorophore. The fluorophore is excited with 360 nm light and the emitted light (460 nm) is detected on a fluorometric plate reader (Tecan Ultra Microplate detection system, Tecan Group Ltd.).
(§3) The analytical software, Prism 3.0® (GraphPad Software Inc) has been used to generate IC50 from a series of data.

[2] = test system: Ramos Burkitt-lymphoma cells; assay: Apoptosis assay (Annexin V / PI staining, FACS); assay type: cell-based; conditions: 48 hr after treatment with 10 μM
Source text: In various therapies such as for proliferative disorders like cancer, the selective induction of apoptosis in proliferating cells such as tumor cells is one of the desirable approaches, and can be mediated by treatment with various anti-proliferative compounds [Blagosklonny M V, Oncogene, 23(16): 2967 (2004); Kaufmann and Earnshaw, Exp Cell Res. 256(1): 42-9 (2000)]. Programmed cell death or apoptosis is the cellular response to stress factors such as DNA damage introduced during conventional anti-cancer treatment. The concerted sequence of events during apoptosis, clearly differentiate this pathway from a non-coordinated form of cell death called necrosis. During the course of apoptosis, characteristic phenotypical cellular changes occur, which include the condensation of chromatin, the shrinkage of cells and finally the fragmentation of chromosomal DNA. One of the very early changes caused by apoptotic events occurs in the phospholipids bilayer of the plasma membrane. The phospholipid phosphatidylserine is translocated from the inner to the outer side of the plasma-membrane and, as a result, is exposed to the extracellular space. One way of detecting early apoptotic cells is to determine the amount of phosphatidyl-serine at the extracellular side of the plasma-membrane which is accomplished by the standard flow cytometric method of Annexin V staining. […]

[3] = biological target: T2, HDAC8 enzyme (recombinant GST-HDAC8) (Homo sapiens, UniProt Q9BY41); assay: In vitro HDAC assay for determination of IC50 values (BIOMOL fluorescent-based), HDAC8; assay type: biochemical; conditions: 500 nM HDAC8 enzyme, 200 μM Flur de lys p53 peptide substrate, 2 h room temperature
T2 construct: Amplification of human HDAC1 and HDAC8 coding region from this cDNA library; made in house; host or cells: SF9 insect cells (baculovirus, pFASTBAC vector)
T2 sequence (Q9BY41 1-377): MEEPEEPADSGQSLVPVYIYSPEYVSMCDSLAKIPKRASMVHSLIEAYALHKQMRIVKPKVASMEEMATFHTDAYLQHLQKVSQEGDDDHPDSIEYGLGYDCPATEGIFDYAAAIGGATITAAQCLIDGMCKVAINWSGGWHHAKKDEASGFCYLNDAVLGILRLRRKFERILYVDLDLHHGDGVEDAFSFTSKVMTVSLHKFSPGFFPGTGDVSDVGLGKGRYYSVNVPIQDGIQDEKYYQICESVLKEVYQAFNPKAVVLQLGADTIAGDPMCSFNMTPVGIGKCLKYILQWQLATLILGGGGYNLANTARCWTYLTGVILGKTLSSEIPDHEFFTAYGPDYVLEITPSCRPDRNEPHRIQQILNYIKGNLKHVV
Description: as §1, with “The pDEST20-HDAC1 and pFASTBAC-HTGST-HDAC8 constructs were confirmed by DNA sequencing.” left out, “Ltd).” for “Ltd). Baculovirus titer was determined by plaque assay to be about 10^8 PFU/ml.”
as §2
The assay has been carried out in 96 well format and the BIOMOL fluorescent-based HDAC activity assay has been applied. […] Flur de lys Developer was added and the reaction was incubated for 10 min. Briefly, deacetylation of the substrate sensitizes it to the developer, which then generates a fluorophore. The fluorophore is excited with 360 nm light and the emitted light (460 nm) is detected on a fluorometric plate reader (Tecan Ultra Microplate detection system, Tecan Group Ltd.).
as §3

[4] = test system: acetylated histone H3 in Colo205 cells; assay: Histone acetylation assay (western blot), histone H3; assay type: cell-based, human; set-up: key: “Active” means accumulation of acetylated histone was observed when compared with control (without compound); conditions: Colo205 cells, 0.1, 1, 5 and 10 μM, 24 h
Description: (§4) A hallmark of histone deacetylase (HDAC) inhibition is the increase in the acetylation level of histones. Histone acetylation, including H3, H4, H2A and H2B can be detected by immuno-blotting (western-blot). Colo205 cells, approximately 1.5×10^6 cells/10 cm dish, were seeded in the previously described medium, cultivated for 24 h and subsequently treated with HDAC inhibitory agents at 0.1, 1, 5 and 10 μM final concentration. After 24 h, cells were harvested and lysed according to the instruction from Sigma Mammalian Cell Lysis Kit. The protein concentration was quantified using BCA method (Sigma Pte Ltd). The protein lysate was separated using 4-12% bis-tris SDS-PAGE gel (Invitrogen Pte Ltd) and was transferred onto PVDF membrane (BioRad Pte Ltd). The membrane was probed separately using primary antibody specific for acetylated H3, acetylated H4 or acetylated H2A (Upstate Pte Ltd). The detection antibody, goat anti rabbit antibody conjugated with Horse radish peroxidase (HRP) was used according to the manufacturer instruction (Pierce Pte Ltd). After removing the detection antibody from the membrane, an enhanced chemiluminescent substrate for detection of HRP (Pierce Pte Ltd) was added onto the membrane. After removing the substrate, the membrane was exposed to an X-ray film (Kodak) for 1 sec-20 mins. The X-ray film was developed using the X-ray film processor. The density of each band observed on the developed film could be analysed using UVP Bioimaging software (UVP, Inc, Upland, Calif.). The values were then normalized against the density of actin in the corresponding samples to obtain the expression of the protein.

[5] = test system: Colo205 human colon cancer cell line; assay: Cell-based proliferation assay for determination of GI50 values, Colo205; conditions: COLO 205, Colo205 cells, 96 h treatment, cyquant assay, read-out: Colo 205 Gl50
Description: (§5) Human colon cancer cell lines (Colo205) and human breast cancer cell lines (MDA-MB435 and MDA-MB231) were obtained from ATCC. Colo205 cells were cultivated in RPMI 1640 containing 2 mM L-Glutamine, 5% FBS, 1.0 mM Na Pyruvate. MDA-MB231 cells were cultivated in RPMI 1640 containing 2 mM L-glutamine, 5% FBS. MDA-MB435 cells were cultivated in DMEM containing 2 mM L-Glutamine, 5% FBS. Colo205 cells were seeded in 96-wells plate at 5000 cells per well respectively. MDA-MB435 and MDA-MB231 cells were seeded in 96-wells plate at 6000 cells per well. The plates were incubated at 37° C., 5% CO2, for 24 h. Cells were treated with compounds at various concentrations for 96 h. Cell growth was then monitored using cyquant cell proliferation assay (Invitrogen Pte Ltd). Dose response curves were plotted to determine GI50 values for the compounds using XL-fit (ID Business Solution, Emeryville, Calif.).

[6] = test system: acetylated histone H2B in Colo205 cells; assay: Histone acetylation assay (western blot), histone H2B; assay type: cell-based, human; set-up: key: “Active” means accumulation of acetylated histone was observed when compared with control (without compound); conditions: Colo205 cells, 0.1, 1, 5 and 10 μM, 24 h
Description: as §4, with “After removing the substrate, the membrane was exposed to an X-ray film (Kodak) for 1 sec-20 mins. The X-ray film was developed using the X-ray film processor.” left out, “The values were then normalized against the density of actin in the corresponding samples to obtain the expression of the protein.” left out

[7] = test system: MDA-MB435 human breast cancer cell line; assay: Cell-based proliferation assay for determination of GI50 values, MDA-MB435; conditions: MDA-MB435 cells, 96 h treatment, cyquant assay
Description: as §5

[8] = test system: acetylated histone H2A in Colo205 cells; assay: Histone acetylation assay (western blot), histone H2A; assay type: cell-based, human; set-up: key: “Active” means accumulation of acetylated histone was observed when compared with control (without compound); conditions: Colo205 cells, 0.1, 1, 5 and 10 μM, 24 h
Description: as §4, with “After removing the substrate, the membrane was exposed to an X-ray film (Kodak) for 1 sec-20 mins. The X-ray film was developed using the X-ray film processor.” left out, “The values were then normalized against the density of actin in the corresponding samples to obtain the expression of the protein.” left out

[9] = test system: acetylated histone H4 in Colo205 cells; assay: Histone acetylation assay (western blot), histone H4; assay type: cell-based, human; set-up: key: “Active” means accumulation of acetylated histone was observed when compared with control (without compound); conditions: Colo205 cells, 0.1, 1, 5 and 10 μM, 24 h
Description: as §4

[10] = test system: MDA-MB231 human breast cancer cell line; assay: Cell-based proliferation assay for determination of GI50 values, MDA-MB231; conditions: MDA-MB231 cells, 96 h treatment, cyquant assay
Description: as §5

SMILES | IC50 [1] [nM] | percentage of late apoptotic cells [2] [%] | IC50 [3] [nM] | Histone 3 acetylation [4] | GI50 [5] [nM] | Histone 2B acetylation [6] | MDA-MB435 Gl50 [7] [µM] | Hisotne 2A acetylation [8] | Histone 4 acetylation [9] | MDA-MB231 Gl50 [10] [µM]
Cc1ccc(S(=O)(=O)NC(=O)Nc2cccc(/C=C/C(=O)NO)c2)cc1 [Example 3, N-Hydroxy-3-{3-[3-(4-methylbenzenesulfonyl)ureido]-phenyl}-acrylamide] | 1540 | 84 | 22 | – | – | – | – | – | – | –
O=C(/C=C/c1ccc(CN(CCc2c[nH]c3ccccc23)C(=O)NC(=O)c2ccccc2)cc1)NO [Example 11, 3-(4-{3-Benzoyl-1-[2-(1H-indol-3-yl)-ethyl]-ureidomethyl}phenyl)-N-hydroxy-acrylamide] | 4 | – | 210 | Active | 260 | Active | 0.62 | Active | Active | 0.26
